Experimental data reported in US20050020594A1, “Substituted pyridazinones” (Pharmacia Corporation, priority 2003, published 2005).

Target: T1, human p38 kinase alpha (Homo sapiens, UniProt Q16539)
T1 construct: made in house; host or cells: E. coli DH10B
Assay: p38 alpha kinase assay
Type: biochemical
Conditions: in vitro inhibition of activated human p38 kinase alpha; two formats described (PHAS-I/32P-ATP, EGFRP/33P-ATP), format used not stated; values given as ranges
Description: The ability of compounds to inhibit human p38 kinase alpha was evaluated using two in vitro assay methods. In the first method, activated human p38 kinase alpha phosphorylates a biotinylated substrate, PHAS-I (phosphorylated heat and acid stable protein-insulin inducible), in the presence of gamma ^32P-ATP (^32P-ATP). PHAS-I was biotinylated prior to the assay and provides a means of capturing the substrate, which is phosphorylated during the assay. p38 Kinase was activated by MKK6. Compounds were tested in 10 fold serial dilutions over the range of 100 μM to 0.001 μM using 1% DMSO. Each concentration of inhibitor was tested in triplicate. All reactions were carried out in 96 well polypropylene plates. Each reaction well contained 25 mM HEPES pH 7.5, 10 mM magnesium acetate and 50µM unlabeled ATP. Activation of p38 was required to achieve sufficient signal in the assay. Biotinylated PHAS-I was used at 1-2 μg per 50 μl reaction volume, with a final concentration of 1.5 μM. Activated human p38 kinase alpha was used at 1 μg per 50 μl reaction volume representing a final concentration of 0.3 μM. […] The plates were sealed and counted. […] 150 μl of Microscint 40 was then added to each well of the Microlite plate, and the plate was sealed, mixed, and counted.

T1 sequence (Q16539 whole entry): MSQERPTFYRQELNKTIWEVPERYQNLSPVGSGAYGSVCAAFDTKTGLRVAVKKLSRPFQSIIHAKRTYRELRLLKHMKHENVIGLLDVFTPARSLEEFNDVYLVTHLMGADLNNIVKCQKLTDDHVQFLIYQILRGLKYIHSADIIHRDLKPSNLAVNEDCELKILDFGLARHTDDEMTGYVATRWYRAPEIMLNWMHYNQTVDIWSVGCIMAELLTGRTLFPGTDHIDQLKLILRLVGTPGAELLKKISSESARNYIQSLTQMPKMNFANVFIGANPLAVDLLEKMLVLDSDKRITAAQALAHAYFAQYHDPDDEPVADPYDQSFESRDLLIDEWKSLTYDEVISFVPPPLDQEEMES

Compound	IC50
O=c1cc(OCCc2ccccc2)cnn1-c1c(Cl)cccc1Cl [Compound 48, 2-(2,6-dichlorophenyl)-5-(2-phenylethoxy)pyridazin-3(2H)-one]	40 to 60 µM
Cc1c(OCCc2ccccc2)cnn(-c2c(Cl)cccc2Cl)c1=O [Compound 49, 2-(2,6-dichlorophenyl)-4-methyl-5-(2-phenylethoxy)pyridazin-3(2H)-one]	0.1 to 20 µM
